{"source": "patent EP0139005A1", "about": "“ANTITUMOR COMPOSITION, METHOD FOR TREATING TUMOR, AND USE OF THE COMPOSITION FOR TREATING TUMOR” (Yoshitomi Pharmaceutical Industries, Ltd., priority 1982, dated 1984)", "key": {"[1]": {"tested_on": "human breast carcinoma MX-1", "assay": "Human breast carcinoma MX-1 implanted into kidneys, tumor weight change (Experimental Example 10)", "format": "in vivo, male Swiss nude mice", "details": "5th day and 9th day, tumor weight change on 11th day, experiment conducted by National Cancer Institute", "procedure": "A plurality of groups each consisting of six male Swiss nude mice as test groups and twelve of them as the control group were implanted into the respective kidneys with human breast carcinoma MX-1. Each of the animals was administered subcutaneously with Y-6430 dissolved in physiological saline on the next day to the implantation, 5th day and 9th day. On llth day, each of the weight of carcinoma was measured, and the tumor weight change (%) of the implanted carcinoma was calculated in accordance with the following scheme."}, "[2]": {"assay": "Acute toxicity in AH-44 carcinoma bearing rats (Experimental Example 11)", "details": "rat, in vivo, Donryu rats with AH-44 carcinoma cells", "procedure": "(§1) Acute toxicity value when Y-6430 was administered intraperitoneally to male ddn mice was 1,500 mgjkg or more. 'Acute toxicity values when AH-44 carcinoma cells were implanted peritoneally and orally to Donryu rats were both 1,000 mg/kg or more."}, "[3]": {"tested_on": "Ehrlich carcinoma", "assay": "Ehrlich carcinoma implanted intraperitoneally, survival (Experimental Example 6)", "format": "in vivo, male ICR mice", "details": "once daily for seven days", "procedure": "A plurality of groups each consisting of six male ICR mice (7-8 weeks old) were implanted intraperitoneally with 2 x 10^6 Ehrlich carcinoma. After 24 hours, Y-6430 dissolved in physiological saline was administered intraperitoneally once daily for seven days."}, "[4]": {"assay": "Acute toxicity in mice (Experimental Example 11)", "details": "mouse, in vivo, ip; administered intraperitoneally, male ddn mice", "procedure": "as §1"}, "[5]": {"tested_on": "L1210 leukemia", "assay": "L1210 leukemia implanted intraperitoneally, i.p. treatment, survival (Experimental Example 3)", "format": "in vivo, female CDF1 mice", "details": "for Average Survival Time / Life-Prolongation Ratio (%): once daily for seven days", "procedure": "(§2) The life-prolongation ratio was calculated by the following scheme (the same scheme is applied to the subsequent experimental examples).\n(§3) Life-prolongation Ratio [formula] T : Average survival days of the treated group\n(§4) C : Average survival days of the control group\n(§5) Animals survived over 30 days or longer were estimated as 30-day survivors, and the cases where T/C equals to or greater than 125% were regarded as effective.\nA plurality of groups each consisting of five heads of female CDF1 mice (8 weeks old) were respectively implanted intraperitoneally with 10 cells of L1210 leukemia. After the next day of the implantation, Y-6430, ESCC and ESCC ethyl ester (hereinafter referred to ESCC-Et) in physiological saline were respectively administered once daily for seven days intraperitoneally, and the average survival days and life-prolongation ratios in each group were calculated.\nAll the test animals died of tumor within 30 days."}, "[6]": {"tested_on": "AH272 hepatoma", "assay": "AH272 hepatoma, survival (Experimental Example 8)", "format": "in vivo, male Donryu rats", "details": "once daily from third to sixth day, control 7.9 days", "procedure": "A plurality of groups each consisting of six male Donryu rats (7-8 weeks old) were implanted with 2 x 10^6 cells of AH272 hepatoma. After the implantation, Y-6430 dissolved in physiological saline was administered intraperitoneally once daily within the period from the third to sixth day, and the average survival days were calculated, the result being shown in Table 9.\nAll the test animals were dead within 30 days."}, "[7]": {"tested_on": "Ehrlich carcinoma", "assay": "Ehrlich carcinoma implanted subcutaneously, tumor weight (Experimental Example 7)", "format": "in vivo, male ICR mice", "details": "once daily for seven days, 24 hours after final administration, control 399.5 mg", "procedure": "A plurality of groups each consisting of six male ICR mice (7-8 weeks old) were respectively implanted subcutaneously with […] Ehrlich carcinoma. After 24 hours, Y-6430 dissolved in physiological saline was administered intraperitoneally once daily for seven days. 24 hours after the final administration, the test animals were killed by ether anesthesia, and the carcinoma of each test animal was exercised and weighed."}, "[8]": {"tested_on": "P388 leukemia", "assay": "P388 leukemia implanted intraperitoneally, survival (Experimental Example 2)", "format": "in vivo, female CDF1 mice", "details": "for 30-day Survivors / Average Survival Time / Life-Prolongation Ratio (%): once daily for seven days", "procedure": "as §2, §3, §4, §5\nA plurality of groups each consisting of five heads of female CDF1 mice (7-8 weeks old) were respectively implanted intraperitoneally with 10^6 cells of P388 leukemia. After 24 hours, Y-6430 and ESCC were respectively administered once daily for seven days, and average survival days, life-prolongation ratios and 30-day survivors in each group were calculated."}, "[9]": {"tested_on": "IMC carcinoma", "assay": "IMC carcinoma implanted intraperitoneally, survival (Experimental Example 1)", "format": "in vivo, female CDF1 mice", "details": "for 30-day Survivors / Average Survival Time / Life-Prolongation Ratio (%): once daily for seven days", "procedure": "A plurality of groups each consisting of five heads of female CDF1 mice (7-8 weeks old) were implanted intraperitoneally with 10^6 cells of IMC carcinoma. After 24 hours, Y-6430 was respectively administered once daily for seven days, and average survival times, life-prolongation ratios and 30-day survivors were calculated.\nas §2, §3, §4, §5"}}}
{"smiles": "CCOC(=O)[C@@H](N)CSC(=O)NC.Cl", "note": "[Y-6430, S-methylcarbamoyl-L-cysteine ethyl ester hydrochloride]", "values": [{"measurement": "Proliferation Ratio (%)", "setting": "[1]; 225 mg/kg s.c. on next day", "result": -70, "unit": "%"}, {"measurement": "Proliferation Ratio (%)", "setting": "[1]; 450 mg/kg s.c. on next day", "result": -64, "unit": "%"}, {"measurement": "Proliferation Ratio (%)", "setting": "[1]; 900 mg/kg s.c. on next day", "result": -65, "unit": "%"}, {"measurement": "LD50", "setting": "[2]; ip, peritoneally", "result": "≥ 1000", "unit": "mg/kg"}, {"measurement": "LD50", "setting": "[2]; po, orally", "result": "≥ 1000", "unit": "mg/kg"}, {"measurement": "30-day Survivors", "setting": "[3]; 50 mg/kg/day i.p.", "result": "0/12"}, {"measurement": "Average Survival Time", "setting": "[3]; 50 mg/kg/day i.p.", "result": 18.6, "unit": "days"}, {"measurement": "30-day Survivors", "setting": "[3]; 100 mg/kg/day i.p.", "result": "6/12"}, {"measurement": "Average Survival Time", "setting": "[3]; 100 mg/kg/day i.p.", "result": 26.0, "unit": "days"}, {"measurement": "LD50", "setting": "[4]", "result": "≥ 1500", "unit": "mg/kg"}, {"measurement": "Average Survival Time", "setting": "[5]; 50 mg/kg/day i.p.", "result": 8.4, "unit": "days"}, {"measurement": "Life-Prolongation Ratio (%)", "setting": "[5]; 50 mg/kg/day i.p.", "result": 105, "unit": "%"}, {"measurement": "Average Survival Time", "setting": "[5]; 100 mg/kg/day i.p.", "result": 9.4, "unit": "days"}, {"measurement": "Life-Prolongation Ratio (%)", "setting": "[5]; 100 mg/kg/day i.p.", "result": 118, "unit": "%"}, {"measurement": "Average Survival Time", "setting": "[5]; 250 mg/kg/day i.p.", "result": 9.8, "unit": "days"}, {"measurement": "Life-Prolongation Ratio (%)", "setting": "[5]; 250 mg/kg/day i.p.", "result": 123, "unit": "%"}, {"measurement": "Average Survival Time", "setting": "[5]; 500 mg/kg/day i.p.", "result": 12.4, "unit": "days"}, {"measurement": "Life-Prolongation Ratio (%)", "setting": "[5]; 500 mg/kg/day i.p.", "result": 155, "unit": "%"}, {"measurement": "effectiveness against L1210 leukemia", "setting": "[5]; group administered with 500 mg/kg i.p.", "result": "effective"}, {"measurement": "Average Survival Time", "setting": "[6]; 100 mg/kg/day i.p.", "result": 10.5, "unit": "days"}, {"measurement": "Average Survival Time", "setting": "[6]; 250 mg/kg/day i.p.", "result": 15.0, "unit": "days"}, {"measurement": "Average Tumor Weight", "setting": "[7]; 50 mg/kg/day i.p.", "result": 194.0, "unit": "mg"}, {"measurement": "Average Tumor Weight", "setting": "[7]; 100 mg/kg/day i.p.", "result": 146.6, "unit": "mg"}, {"measurement": "30-day Survivors", "setting": "[8]; 100 mg/kg/day i.p.", "result": "0/5"}, {"measurement": "Average Survival Time", "setting": "[8]; 100 mg/kg/day i.p.", "result": 13.4, "unit": "days"}, {"measurement": "Life-Prolongation Ratio (%)", "setting": "[8]; 100 mg/kg/day i.p.", "result": 134, "unit": "%"}, {"measurement": "30-day Survivors", "setting": "[8]; 100 mg/kg/day p.o.", "result": "0/5"}, {"measurement": "Average Survival Time", "setting": "[8]; 100 mg/kg/day p.o.", "result": 11.6, "unit": "days"}, {"measurement": "Life-Prolongation Ratio (%)", "setting": "[8]; 100 mg/kg/day p.o.", "result": 116, "unit": "%"}, {"measurement": "30-day Survivors", "setting": "[8]; 250 mg/kg/day i.p.", "result": "0/5"}, {"measurement": "Average Survival Time", "setting": "[8]; 250 mg/kg/day i.p.", "result": 14.6, "unit": "days"}, {"measurement": "Life-Prolongation Ratio (%)", "setting": "[8]; 250 mg/kg/day i.p.", "result": 146, "unit": "%"}, {"measurement": "30-day Survivors", "setting": "[8]; 250 mg/kg/day p.o.", "result": "0/5"}, {"measurement": "Average Survival Time", "setting": "[8]; 250 mg/kg/day p.o.", "result": 13.4, "unit": "days"}, {"measurement": "Life-Prolongation Ratio (%)", "setting": "[8]; 250 mg/kg/day p.o.", "result": 134, "unit": "%"}, {"measurement": "30-day Survivors", "setting": "[8]; 500 mg/kg/day i.p.", "result": "0/5"}, {"measurement": "Average Survival Time", "setting": "[8]; 500 mg/kg/day i.p.", "result": 17.2, "unit": "days"}, {"measurement": "Life-Prolongation Ratio (%)", "setting": "[8]; 500 mg/kg/day i.p.", "result": 172, "unit": "%"}, {"measurement": "30-day Survivors", "setting": "[8]; 500 mg/kg/day p.o.", "result": "0/5"}, {"measurement": "Average Survival Time", "setting": "[8]; 500 mg/kg/day p.o.", "result": 15.0, "unit": "days"}, {"measurement": "Life-Prolongation Ratio (%)", "setting": "[8]; 500 mg/kg/day p.o.", "result": 150, "unit": "%"}, {"measurement": "30-day Survivors", "setting": "[8]; 1,000 mg/kg/day p.o.", "result": "0/5"}, {"measurement": "Average Survival Time", "setting": "[8]; 1,000 mg/kg/day p.o.", "result": 16.6, "unit": "days"}, {"measurement": "Life-Prolongation Ratio (%)", "setting": "[8]; 1,000 mg/kg/day p.o.", "result": 166, "unit": "%"}, {"measurement": "effectiveness against P388 leukemia", "setting": "[8]; summary of Tables 2 and 3, T/C equal to or greater than 125% regarded as effective", "result": "effective"}, {"measurement": "30-day Survivors", "setting": "[9]; 100 mg/kg/day i.p.", "result": "0/5"}, {"measurement": "Average Survival Time", "setting": "[9]; 100 mg/kg/day i.p.", "result": 24.0, "unit": "days"}, {"measurement": "Life-Prolongation Ratio (%)", "setting": "[9]; 100 mg/kg/day i.p.", "result": 218, "unit": "%"}, {"measurement": "30-day Survivors", "setting": "[9]; 100 mg/kg/day p.o.", "result": "0/5"}, {"measurement": "Average Survival Time", "setting": "[9]; 100 mg/kg/day p.o.", "result": 12.6, "unit": "days"}, {"measurement": "Life-Prolongation Ratio (%)", "setting": "[9]; 100 mg/kg/day p.o.", "result": 115, "unit": "%"}, {"measurement": "30-day Survivors", "setting": "[9]; 250 mg/kg/day i.p.", "result": "1/5"}, {"measurement": "Average Survival Time", "setting": "[9]; 250 mg/kg/day i.p.", "result": 25.0, "unit": "days"}, {"measurement": "Life-Prolongation Ratio (%)", "setting": "[9]; 250 mg/kg/day i.p.", "result": 227, "unit": "%"}, {"measurement": "30-day Survivors", "setting": "[9]; 250 mg/kg/day p.o.", "result": "0/5"}, {"measurement": "Average Survival Time", "setting": "[9]; 250 mg/kg/day p.o.", "result": 18.2, "unit": "days"}, {"measurement": "Life-Prolongation Ratio (%)", "setting": "[9]; 250 mg/kg/day p.o.", "result": 165, "unit": "%"}, {"measurement": "30-day Survivors", "setting": "[9]; 500 mg/kg/day i.p.", "result": "1/5"}, {"measurement": "Average Survival Time", "setting": "[9]; 500 mg/kg/day i.p.", "result": 27.0, "unit": "days"}, {"measurement": "Life-Prolongation Ratio (%)", "setting": "[9]; 500 mg/kg/day i.p.", "result": 245, "unit": "%"}, {"measurement": "30-day Survivors", "setting": "[9]; 500 mg/kg/day p.o.", "result": "0/5"}, {"measurement": "Average Survival Time", "setting": "[9]; 500 mg/kg/day p.o.", "result": 21.0, "unit": "days"}, {"measurement": "Life-Prolongation Ratio (%)", "setting": "[9]; 500 mg/kg/day p.o.", "result": 191, "unit": "%"}, {"measurement": "30-day Survivors", "setting": "[9]; 1,000 mg/kg/day p.o.", "result": "0/5"}, {"measurement": "Average Survival Time", "setting": "[9]; 1,000 mg/kg/day p.o.", "result": 23.0, "unit": "days"}, {"measurement": "Life-Prolongation Ratio (%)", "setting": "[9]; 1,000 mg/kg/day p.o.", "result": 209, "unit": "%"}, {"measurement": "effectiveness against IMC carcinoma", "setting": "[9]; administered orally or intraperitoneally, T/C equal to or greater than 125% regarded as effective", "result": "effective"}]}
